{
  "source": "paper PMC8100298",
  "about": "“Histone deacetylase inhibitor resminostat in combination with sorafenib counteracts platelet-mediated pro-tumoral effects in hepatocellular carcinoma” (Scientific Reports, 2021)",
  "experiment_in_all_cases": "Efficacy screening assay",
  "assay_type_in_all_cases": "cell-based",
  "key": {"RDES": {"test_system": "RDES", "details": "72 h, bone", "protocol": "(§1) The experiment was performed by Oncolead GmbH & Co. KG (Karlsfeld , Germany), based on a standardized screening procedure . Cell lines were purchased directly from the ATCC, NCI and DSMZ cell line c ollections. Cells used for the study had undergone less than 20 passages. To ensure the absence of potential contamination and wrong assignment, all cell lines were tested using a whole genome assay (Agilent, USA). All cell lines were grown as recommended by the suppliers and with addition of 100 U/mL penicillin G and 100 µg/mL; streptomycin. Cell growth and treatments were performed in Nunclon D 96 -well plates (NUNC, Germany). The optimal seeding density for each cell line was determined to ensure exponential growth for the duration of the experiment. All cells growing without anti-cancer agents were sub-conﬂuent by the end of the treatment, as determined by visual inspection.\n(§2) After an initial 24 h pre-growth period, the compounds were added. The vehicle concentration […]\n(§3) was 0.1% DMSO. After incubation at 37°C for 72 h, the culture medium was aspirated, and the cells were precipitated by the addition of 10% trichloroacetic acid (Sigma-Aldrich, Missouri, US). After overnight incubation at 4°C, the plates were washed three times with deionized water. The precipitates were then stained with SRB (0.4% wt/v sulforhodamine B solution in 1% acetic acid, Sigma-Aldrich, Missouri, US). Afterwards, the plates were washed six times with 1% acetic acid to remove unbound stain. After drying the plates at room temperature, the bound SRB was solubilized with 10 mM Tris base and the optical density was measured at 520 nm using a Victor2 plate reader (Perkin Elmer, Germany). Blank OD values were subtracted from mean OD values for each concentration. The nonlinear curve ﬁtting and EC50 calculations were per formed using XLﬁt and algorithm “205” (ID Business […]\n(§4) For comparison of EC50 values in Figure 1F, one-way ANOVA with multiple comparison testing (Tukey) was performed. Multiplicity adjusted p -values for the EC50 with sorafenib versus resminostat for each cell line and comparison between cell lines for sorafenib are presented (95% confidence interval for significance testing). For comparison of EC50 data in Figure 2B, one-way ANOVA with multiple comparison testing (Tukey) was performed. Multiplicity adjusted p-values with 95% confidence interval was applied. For the invasion assays in Figure 4, one-way ANOVA with multiple comparison testing (Tukey) was performed. Multiplicity adjusted p-values with 95% confidence interval was applied. The adjusted p-values comparing vehicle control without vs. with platelets and compound"}, "MIAPACA2": {"test_system": "MIAPACA2", "details": "Homo sapiens, MIA PaCa-2, MIAPACA2, pancreas, 72 h", "protocol": "as §1, §2, §3, §4"}, "SKMEL5": {"test_system": "SKMEL5", "details": "SKMEL5, skin", "protocol": "as §1, §2, §3, §4"}, "MT3": {"test_system": "MT3", "details": "MT3, breast", "protocol": "as §1, §2, §3, §4"}, "NCIH292": {"test_system": "NCIH292", "details": "NCIH292, lung", "protocol": "as §1, §2, §3, §4"}, "PC3": {"test_system": "PC3", "details": "Homo sapiens, PC-3, PC3, prostate, 72 h", "protocol": "as §1, §2, §3, §4"}, "COLO678": {"test_system": "COLO678", "details": "Homo sapiens, COLO-678, COLO678, colon, 72 h", "protocol": "as §1, §2, §3, §4"}, "U2OS": {"test_system": "U2OS", "details": "72 h, bone", "protocol": "as §1, §2, §3, §4"}, "HCT15": {"test_system": "HCT15", "details": "HCT15, colon", "protocol": "as §1, §2, §3, §4"}, "CALU6": {"test_system": "CALU6", "details": "CALU6, lung", "protocol": "as §1, §2, §3, §4"}, "T24": {"test_system": "T24", "details": "T24, bladder", "protocol": "as §1, §2, §3, §4"}, "HELA": {"test_system": "HELA", "details": "72 h, cervix", "protocol": "as §1, §2, §3, §4"}, "SNB75": {"test_system": "SNB75", "details": "SNB75, brain", "protocol": "as §1, §2, §3, §4"}, "CLS439": {"test_system": "CLS439", "protocol": "as §1, §2, §3, §4"}, "HS729": {"test_system": "HS729", "details": "HS729, muscle, 72 h", "protocol": "as §1, §2, §3, §4"}, "NCIH358M": {"test_system": "NCIH358M", "details": "72 h, lung", "protocol": "as §1, §2, §3, §4"}, "CASKI": {"test_system": "CASKI", "details": "72 h, cervix", "protocol": "as §1, §2, §3, §4"}, "[1]": {"details": "log of EC50, negative, read-out: log(EC50) (converted)"}},
  "note": "Where two headings read alike, the source gives them in different places.",
  "data": [
    {"compound": "CN(C)Cc1ccc(S(=O)(=O)n2ccc(/C=C/C(=O)NO)c2)cc1", "note": "[resminostat, Resminostat]", "values": [
      {"measurement": "EC50", "setting": "RDES; RD-ES, log of EC50, negative, read-out: log(EC50) (converted)", "result": 3.55, "unit": "µM"},
      {"measurement": "EC50", "setting": "RDES; RD-ES, read-out: EC50", "result": 3.57, "unit": "µM"},
      {"measurement": "EC50", "setting": "RDES; read-out: EC50", "result": 3.57, "unit": "µM"},
      {"measurement": "EC50", "setting": "MIAPACA2; [1]", "result": 2.69, "unit": "µM"},
      {"measurement": "EC50", "setting": "MIAPACA2; read-out: EC50", "result": 2.71, "unit": "µM"},
      {"measurement": "EC50", "setting": "SKMEL5; Homo sapiens, SK-MEL-5, 72 h, log of EC50, negative, read-out: log(EC50) (converted)", "result": 1.7, "unit": "µM"},
      {"measurement": "EC50", "setting": "SKMEL5; Homo sapiens, SK-MEL-5, 72 h, read-out: EC50", "result": 1.71, "unit": "µM"},
      {"measurement": "EC50", "setting": "SKMEL5; 72 h, read-out: EC50", "result": 1.71, "unit": "µM"},
      {"measurement": "EC50", "setting": "MT3; 72 h, read-out: EC50", "result": 1.89, "unit": "µM"},
      {"measurement": "EC50", "setting": "MT3; MT-3, 72 h, log of EC50, negative, read-out: log(EC50) (converted)", "result": 1.91, "unit": "µM"},
      {"measurement": "EC50", "setting": "MT3; MT-3, 72 h, read-out: EC50", "result": 1.89, "unit": "µM"},
      {"measurement": "EC50", "setting": "NCIH292; Homo sapiens, NCI-H292, 72 h, log of EC50, negative, read-out: log(EC50) (converted)", "result": 6.31, "unit": "µM"},
      {"measurement": "EC50", "setting": "NCIH292; Homo sapiens, NCI-H292, 72 h, read-out: EC50", "result": 6.27, "unit": "µM"},
      {"measurement": "EC50", "setting": "NCIH292; 72 h, read-out: EC50", "result": 6.27, "unit": "µM"},
      {"measurement": "EC50", "setting": "PC3; [1]", "result": 1.7, "unit": "µM"},
      {"measurement": "EC50", "setting": "PC3; read-out: EC50", "result": 1.69, "unit": "µM"},
      {"measurement": "EC50", "setting": "COLO678; [1]", "result": 7.59, "unit": "µM"},
      {"measurement": "EC50", "setting": "COLO678; read-out: EC50", "result": 7.62, "unit": "µM"},
      {"measurement": "EC50", "setting": "U2OS; Homo sapiens, log of EC50, negative, read-out: log(EC50) (converted)", "result": 1.17, "unit": "µM"},
      {"measurement": "EC50", "setting": "U2OS; Homo sapiens, read-out: EC50", "result": 1.16, "unit": "µM"},
      {"measurement": "EC50", "setting": "U2OS; read-out: EC50", "result": 1.16, "unit": "µM"},
      {"measurement": "EC50", "setting": "HCT15; 72 h, read-out: EC50", "result": 2.07, "unit": "µM"},
      {"measurement": "EC50", "setting": "HCT15; Homo sapiens, HCT-15, 72 h, log of EC50, negative, read-out: log(EC50) (converted)", "result": 2.09, "unit": "µM"},
      {"measurement": "EC50", "setting": "HCT15; Homo sapiens, HCT-15, 72 h, read-out: EC50", "result": 2.07, "unit": "µM"},
      {"measurement": "EC50", "setting": "CALU6; 72 h, read-out: EC50", "result": 2.93, "unit": "µM"},
      {"measurement": "EC50", "setting": "CALU6; Homo sapiens, Calu-6, 72 h, log of EC50, negative, read-out: log(EC50) (converted)", "result": 2.95, "unit": "µM"},
      {"measurement": "EC50", "setting": "CALU6; Homo sapiens, Calu-6, 72 h, read-out: EC50", "result": 2.93, "unit": "µM"},
      {"measurement": "EC50", "setting": "T24; Homo sapiens, T-24, 72 h, log of EC50, negative, read-out: log(EC50) (converted)", "result": 0.933, "unit": "µM"},
      {"measurement": "EC50", "setting": "T24; Homo sapiens, T-24, 72 h, read-out: EC50", "result": 0.937, "unit": "µM"},
      {"measurement": "EC50", "setting": "T24; 72 h, read-out: EC50", "result": 0.94, "unit": "µM"},
      {"measurement": "EC50", "setting": "HELA; Homo sapiens, HeLa, log of EC50, negative, read-out: log(EC50) (converted)", "result": 3.31, "unit": "µM"},
      {"measurement": "EC50", "setting": "HELA; Homo sapiens, HeLa, read-out: EC50", "result": 3.31, "unit": "µM"},
      {"measurement": "EC50", "setting": "HELA; read-out: EC50", "result": 3.32, "unit": "µM"},
      {"measurement": "EC50", "setting": "SNB75; Homo sapiens, SNB-75, 72 h, log of EC50, negative, read-out: log(EC50) (converted)", "result": 6.76, "unit": "µM"},
      {"measurement": "EC50", "setting": "SNB75; Homo sapiens, SNB-75, 72 h, read-out: EC50", "result": 6.75, "unit": "µM"},
      {"measurement": "EC50", "setting": "SNB75; 72 h, read-out: EC50", "result": 6.75, "unit": "µM"},
      {"measurement": "EC50", "setting": "CLS439; 72 h, CLS439, bladder, log of EC50, negative, read-out: log(EC50) (converted)", "result": 0.776, "unit": "µM"},
      {"measurement": "EC50", "setting": "CLS439; 72 h, CLS439, bladder, read-out: EC50", "result": 0.781, "unit": "µM"},
      {"measurement": "EC50", "setting": "CLS439; CLS439, bladder; 72 h; read-out: EC50", "result": 0.78, "unit": "µM"},
      {"measurement": "EC50", "setting": "HS729; [1]", "result": 3.39, "unit": "µM"},
      {"measurement": "EC50", "setting": "HS729; read-out: EC50", "result": 3.35, "unit": "µM"},
      {"measurement": "EC50", "setting": "NCIH358M; NCI-H358M, log of EC50, negative, read-out: log(EC50) (converted)", "result": 4.37, "unit": "µM"},
      {"measurement": "EC50", "setting": "NCIH358M; NCI-H358M, read-out: EC50", "result": 4.33, "unit": "µM"},
      {"measurement": "EC50", "setting": "NCIH358M; read-out: EC50", "result": 4.33, "unit": "µM"},
      {"measurement": "EC50", "setting": "CASKI; Homo sapiens, Ca-Ski, log of EC50, negative, read-out: log(EC50) (converted)", "result": 2.63, "unit": "µM"},
      {"measurement": "EC50", "setting": "CASKI; Homo sapiens, Ca-Ski, read-out: EC50", "result": 2.63, "unit": "µM"},
      {"measurement": "EC50", "setting": "CASKI; read-out: EC50", "result": 2.63, "unit": "µM"}
    ]}
  ]
}
